Our source for the Kd and IC50 values is patent US20130079345A1, “[…] ACTIVE DISUBSTITUTED TRIAZINE DERIVATIVES” (BAYER INTELLECTUAL PROPERTY GMBH, priority 2010, published 2013).

As usually defined, the IC50 is the concentration that gives 50% inhibition.

SMILES strings stand for the structures. Counter-ions that a name gives are not always drawn.

One assay deals with T1, CDK9/Cyclin T1 (Homo sapiens, UniProt P50750).
T1 construct: purchased Invitrogen
As to the kind of experiment: LanthaScreen Eu Kinase Binding Assay, CDK9/Cyclin T1. Particulars: tracer 236, read-out: Affinity (Kd) CDK9/Cyclin T1. In a few lines:
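TR-FRET competition binding with Alexa Fluor 647 tracer and Eu-anti-GST antibody; e.g. CDK2/Cyclin A 15 nM with tracer 236 60 nM (working solutions). Kinase buffer: HEPES 20 mM pH 8.0, MgCl2 10 mM, DTT 1 mM, Brij-35 0.01%; 8-point 1:3 series, 1 h at room temperature; Kd from sigmoidal dose-response curves.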
A general note: TR-FRET usually uses a lanthanide donor and a delayed reading to cut background.

A further assay concerns the target T2, CDK7/CyclinH/Mat1 (Homo sapiens, UniProt P50613).
T2 construct: purchased Carna Biosciences
As to the kind of experiment: Lance Ultra KinaSelect Assay, CDK7. The format is biochemical. The conditions noted are these: ATP 25 μM, read-out: Inhibition (IC50) CDK7. How it is done:
This protocol describes how the Lance Ultra KinaSelect Assay was performed to determine half maximal inhibitory concentration (IC50) of compounds of general formula (I) and CDK/Cyclin complexes. The principle behind this enzymatic assay is based upon the phosphorylation of the ULight-Peptide Substrat. It is detected by using a specific EU-labeled anti-phospho peptide antibody. The binding of the Eu-labeled anti-phospho peptide antibody to the phosphorylated U Light labeled peptide gives rise to a FRET-signal. Binding of an inhibitor to the kinase prevents phosphorylation of the ULight-MBP Substrat, resulting in a loss of FRET.
The compounds of general formula (I) summarized in Table 5 were diluted from a 10 mM DMSO stock solution 1:10 in a total volume of 15 μL DMSO. This compound predilution was then serial diluted 1:3 over 8 steps in DMSO and briefly spun down. Each compound solution was now diluted 1:20 in Enzymatic Buffer (HEPES: 50 mM, pH: 7.5; MgCl2: 10 mM; EGTA: 1 mM; DTT: 2 mM; Tween-20: 0.01%), mixed thoroughly and spun down. For every sample, 2 μL of the diluted compound were mixed with 6 μL CDK/Cyclin/Substrat solution and […] in a well of a small volume 384 well plate (Corning Incorporated, Corning, N.Y., USA; order no. 3673). […] For positive controls, in each well 2 μL of DMSO solution (1% final DMSO assay concentration) was mixed with 6 μL CDK/Cyclin/Substrat (appropriate final concentration see Table 3) and 2 μL Tracer ATP solution (appropriate final concentration see Table 3). Positive and negative controls were calculated from at least 8 different sample wells. The 384 well plates were mixed in a Teleshaker plate mixer (Beckman Coulter, Brea, Calif., USA) at 2000 rpm for 40 sec, and incubated for 1 h at room temperature. Before reading, 10 μL detection buffer (Lance Detection Buffer 1×; EDTA: […]; Eu-Anti-P-MBP: see Table 3) was added. The FRET signal was measured at 340 nm excitation, 665 nm and 615 nm emission (for the kinase tracer and LanthaScreen Eu-AB, respectively) with an Envision spectrophotometer (Perkin Elmer, Waltham, Mass., USA) with 50 μs delay and 300 μs integration time. IC50 values were determined from the sigmoidal dose response curves with the software Quattro Workflow (Quattro GmbH, Munich, Germany).

A further assay deals with T3, CDK8/Cyclin C (Homo sapiens, UniProt P49336).
T3 construct: purchased Invitrogen
T3 sequence (P49336 whole entry): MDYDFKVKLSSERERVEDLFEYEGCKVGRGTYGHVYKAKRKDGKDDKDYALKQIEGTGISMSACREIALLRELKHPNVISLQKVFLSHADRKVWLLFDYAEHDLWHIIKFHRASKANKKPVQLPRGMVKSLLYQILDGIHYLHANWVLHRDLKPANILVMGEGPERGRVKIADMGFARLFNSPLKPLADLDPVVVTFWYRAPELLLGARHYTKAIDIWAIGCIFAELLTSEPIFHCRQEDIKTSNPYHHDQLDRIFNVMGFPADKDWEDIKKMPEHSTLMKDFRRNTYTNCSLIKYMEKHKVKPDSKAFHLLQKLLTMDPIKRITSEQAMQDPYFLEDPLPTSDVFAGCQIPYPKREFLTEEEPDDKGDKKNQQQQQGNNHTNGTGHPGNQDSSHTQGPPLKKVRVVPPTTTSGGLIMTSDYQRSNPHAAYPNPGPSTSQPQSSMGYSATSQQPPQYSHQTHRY
T3 sequence (P24863 whole entry partner): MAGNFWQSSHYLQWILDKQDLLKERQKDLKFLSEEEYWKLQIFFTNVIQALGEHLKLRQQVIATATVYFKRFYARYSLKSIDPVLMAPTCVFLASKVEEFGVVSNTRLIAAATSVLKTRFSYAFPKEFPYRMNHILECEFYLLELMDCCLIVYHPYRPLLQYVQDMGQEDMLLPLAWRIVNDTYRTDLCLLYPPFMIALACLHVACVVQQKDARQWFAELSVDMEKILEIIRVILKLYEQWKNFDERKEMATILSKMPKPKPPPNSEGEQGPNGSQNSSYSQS
Nature of the assay: LanthaScreen Eu Kinase Binding Assay, CDK8. The conditions noted are these: tracer 236, read-out: Affinity (Kd) CDK8. How it is done: This protocol describes how the LanthaScreen Eu Kinase Binding Assay was performed to determine dissociation constants (Kd) of compounds of general formula (I) and CDK/Cyclin complexes. The principle behind this assay is based upon the binding and displacement of an Alexa Fluor 647-labeled tracer, which binds to the active site of kinases. Binding of the tracer to the kinase is detected using a Eu-labeled antibody. Simultaneous binding of both the tracer and antibody to the kinase gives rise to a FRET-signal. Binding of an inhibitor to the kinase competes for binding with the tracer, resulting in a loss of FRET.
The compounds of general formula (I) summarized in Table 1 were diluted from a 10 mM DMSO stock solution 1:10 in a total volume of 15 μL DMSO. This compound predilution was then serial diluted 1:3 over 8 steps in DMSO and briefly spun down. Each compound solution was now diluted 1:33.33 in kinase buffer (HEPES: 20 mM, pH: 8.0; MgCl2: 10 mM; DTT: 1 mM; Brij-35: 0.01%), mixed thoroughly and spun down. For every sample, 5 μL of the diluted compound were mixed with 5 μL tracer working solution (e.g. 60 nM tracer 236 in kinase buffer for CDK2/Cyclin A) and 5 μL CDK/Cyclin/Anti-GST-AB-working solution (e.g. 15 nM CDK2/Cyclin A, 1:250 dilution of Anti-GST-AB in kinase buffer) in a well of a small volume 384 well plate (Corning Incorporated, Corning, N.Y., USA; order no. 3673). […] For positive controls, in each well 5 μL of DMSO working solution (3% DMSO diluted in kinase buffer) was mixed with 5 μL CDK/Cyclin/Anti-GST-AB-working solution: (e.g. 15 nM CDK2/Cyclin A, 1:250 dilution of Anti-GST-AB in kinase buffer) and 5 μL Tracer working solution (e.g. 60 nM Tracer 236 in kinase buffer for CDK2/Cyclin A). Positive and negative controls were calculated from at least 8 different sample wells. The 384 well plates were mixed in a Teleshaker plate mixer (Beckman Coulter, Brea, Calif., USA) at 2000 rpm for 40 sec, and incubated for 1 h at room temperature before reading. The FRET signal was measured at 340 nm excitation, 665 nm and 615 nm emission (for the kinase tracer and LanthaScreen Eu-AB, respectively) with an Envision spectrophotometer (Perkin Elmer, Waltham, Mass., USA) with 50 μs delay and 300 μs integration time. Kd values were determined from the sigmoidal dose response curves with the software Quattro Workflow (Quattro GmbH, Munich, Germany).

T2 sequence (P50613 whole entry): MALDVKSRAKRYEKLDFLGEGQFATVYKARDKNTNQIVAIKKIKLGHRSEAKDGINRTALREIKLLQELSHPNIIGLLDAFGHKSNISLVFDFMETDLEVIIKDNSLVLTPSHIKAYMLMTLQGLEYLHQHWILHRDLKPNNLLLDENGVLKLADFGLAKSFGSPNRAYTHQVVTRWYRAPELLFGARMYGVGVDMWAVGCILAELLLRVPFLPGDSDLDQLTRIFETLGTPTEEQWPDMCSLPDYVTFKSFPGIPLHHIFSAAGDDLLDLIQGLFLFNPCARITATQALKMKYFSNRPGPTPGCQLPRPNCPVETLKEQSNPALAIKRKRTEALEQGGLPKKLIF
T2 sequence (P51946 whole entry partner): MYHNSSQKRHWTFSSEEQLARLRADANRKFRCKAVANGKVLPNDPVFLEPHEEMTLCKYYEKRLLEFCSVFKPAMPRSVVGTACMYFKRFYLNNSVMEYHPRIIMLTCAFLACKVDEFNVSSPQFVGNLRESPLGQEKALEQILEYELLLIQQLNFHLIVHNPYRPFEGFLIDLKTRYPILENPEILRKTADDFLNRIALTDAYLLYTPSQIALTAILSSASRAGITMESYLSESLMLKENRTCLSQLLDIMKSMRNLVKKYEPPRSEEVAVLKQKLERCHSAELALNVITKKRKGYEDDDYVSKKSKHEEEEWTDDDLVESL
T2 sequence (P51948 whole entry partner): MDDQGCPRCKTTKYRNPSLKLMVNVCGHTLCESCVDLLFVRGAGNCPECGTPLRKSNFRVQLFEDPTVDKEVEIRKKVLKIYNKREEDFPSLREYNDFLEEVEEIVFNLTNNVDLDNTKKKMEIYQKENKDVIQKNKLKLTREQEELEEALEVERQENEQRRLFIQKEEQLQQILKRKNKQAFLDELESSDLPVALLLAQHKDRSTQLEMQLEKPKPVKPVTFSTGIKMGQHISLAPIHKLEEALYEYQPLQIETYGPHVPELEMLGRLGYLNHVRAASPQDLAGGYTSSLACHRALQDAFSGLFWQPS
T1 sequence (P50750 whole entry): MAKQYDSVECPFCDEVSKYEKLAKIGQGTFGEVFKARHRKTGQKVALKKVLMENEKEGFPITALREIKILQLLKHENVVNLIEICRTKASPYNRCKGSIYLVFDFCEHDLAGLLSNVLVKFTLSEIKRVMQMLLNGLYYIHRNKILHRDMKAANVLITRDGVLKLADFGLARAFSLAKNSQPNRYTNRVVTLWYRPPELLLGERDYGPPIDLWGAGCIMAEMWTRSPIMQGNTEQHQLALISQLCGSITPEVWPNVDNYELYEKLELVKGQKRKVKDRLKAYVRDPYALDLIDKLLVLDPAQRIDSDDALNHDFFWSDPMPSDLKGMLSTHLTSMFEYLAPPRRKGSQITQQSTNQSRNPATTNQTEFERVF
T1 sequence (O60563 whole entry partner): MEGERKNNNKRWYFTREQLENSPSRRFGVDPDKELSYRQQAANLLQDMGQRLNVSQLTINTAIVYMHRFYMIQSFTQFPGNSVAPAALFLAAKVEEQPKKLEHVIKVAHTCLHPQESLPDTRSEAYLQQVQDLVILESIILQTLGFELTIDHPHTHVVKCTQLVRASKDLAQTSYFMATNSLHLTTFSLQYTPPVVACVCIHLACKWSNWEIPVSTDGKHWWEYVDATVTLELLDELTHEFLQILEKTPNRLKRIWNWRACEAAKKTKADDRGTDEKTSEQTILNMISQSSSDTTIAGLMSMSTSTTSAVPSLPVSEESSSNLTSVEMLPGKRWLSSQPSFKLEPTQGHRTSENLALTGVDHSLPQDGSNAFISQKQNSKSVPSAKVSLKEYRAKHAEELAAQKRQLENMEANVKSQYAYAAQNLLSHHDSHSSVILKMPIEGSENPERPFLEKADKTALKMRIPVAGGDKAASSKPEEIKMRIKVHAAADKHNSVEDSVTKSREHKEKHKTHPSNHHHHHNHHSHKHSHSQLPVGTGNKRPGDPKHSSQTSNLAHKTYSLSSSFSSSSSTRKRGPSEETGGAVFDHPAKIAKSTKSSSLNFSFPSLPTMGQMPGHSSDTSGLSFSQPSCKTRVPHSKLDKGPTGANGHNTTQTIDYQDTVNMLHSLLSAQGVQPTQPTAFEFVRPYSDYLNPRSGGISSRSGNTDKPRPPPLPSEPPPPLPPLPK

`COc1ccccc1-c1ncnc(Nc2cccc(CS(N)(=O)=O)c2)n1` [B1′, 3-[(4-(2-Methoxyphenyl)-1,3,5-triazin-2-yl)amino]benzenemethanesulfonamide trifluoroacetic acid salt]: on CDK9/Cyclin T1, the Kd is 7.6 nM. For the same compound, the half-inhibitory concentration (IC50) at CDK7/CyclinH/Mat1 was over 10000 nM.

With `COc1cc(F)ccc1-c1ncnc(Nc2cccc(CS(N)(=O)=O)c2)n1` [B2′, 1-(3-{[4-(4-fluoro-2-methoxyphenyl)-1,3,5-triazin-2-yl]amino}phenyl)methanesulfonamide hydrochloride], the Kd on CDK9/Cyclin T1 was determined as 5.6 nM.

As for `COc1cc(F)ccc1-c1ncnc(Nc2cccc(CS(N)(=O)=O)c2)n1` [B2″, 1-(3-{[4-(4-fluoro-2-methoxyphenyl)-1,3,5-triazin-2-yl]amino}phenyl)methanesulfonamide trifluoroacetic acid salt], the values for the Kd at CDK9/Cyclin T1 and at CDK8/Cyclin C were 6.6 nM and over 10000 nM, respectively. Also, at CDK7/CyclinH/Mat1, the IC50 is over 10000 nM.

Turning to `NS(=O)(=O)Cc1cccc(Nc2ncnc(-c3ccccc3OCc3ccccc3)n2)c1` [B13′, 3-[(4-(2-Benzyloxyphenyl)-1,3,5-triazin-2-yl)amino]benzenemethanesulfonamide trifluoroacetic acid salt], the Kd at CDK9/Cyclin T1 was 5.5 nM; on CDK8/Cyclin C it was 4860 nM. The half-inhibitory concentration (IC50) on CDK7/CyclinH/Mat1 was over 10000 nM.

Regarding `COc1ccccc1-c1ncnc(Nc2cccc(S(N)(=O)=O)c2)n1` [C1′, 3-[(4-(2-Methoxyphenyl)-1,3,5-triazin-2-yl)amino]benzenesulfonamide trifluoroacetic acid salt], on CDK9/Cyclin T1, the Kd is under 5 nM. Besides, at CDK7/CyclinH/Mat1, the IC50 was over 10000 nM.

In the case of `COc1ccccc1-c1ncnc(Nc2cccc(CS(N)(=O)=O)c2)n1` [Compound B1, 3-[(4-(2-Methoxyphenyl)-1,3,5-triazin-2-yl)amino]benzenemethanesulfonamide], at CDK9/Cyclin T1, the Kd is 5 nM.

Take `COc1cc(F)ccc1-c1ncnc(Nc2cccc(CS(N)(=O)=O)c2)n1` [Compound B2, 3-[(4-(4-Fluoro-2-methoxyphenyl)-1,3,5-triazin-2-yl)amino]benzenemethanesulfonamide]: at CDK9/Cyclin T1, the Kd was 5 nM.

For `COc1ccc(F)cc1-c1ncnc(Nc2cccc(CS(N)(=O)=O)c2)n1` [Compound B3, 3-[(4-(5-Fluoro-2-methoxyphenyl)-1,3,5-triazin-2-yl)amino]benzenemethanesulfonamide], the Kd on CDK9/Cyclin T1 is 16 nM.

For `COc1cccc(F)c1-c1ncnc(Nc2cccc(CS(N)(=O)=O)c2)n1` [Compound B4, 3-[(4-(6-Fluoro-2-methoxyphenyl)-1,3,5-triazin-2-yl)amino]benzenemethanesulfonamide], the Kd on CDK9/Cyclin T1 was 54 nM; at CDK8/Cyclin C, over 10000 nM. Moreover, the IC50 at CDK7/CyclinH/Mat1 is over 10000 nM.

As to `COc1cc(Cl)ccc1-c1ncnc(Nc2cccc(CS(N)(=O)=O)c2)n1` [Compound B6, 3-[(4-(4-Chloro-2-methoxyphenyl)-1,3,5-triazin-2-yl)amino]benzenemethanesulfonamide], the values for the Kd on CDK9/Cyclin T1 and on CDK8/Cyclin C were 11 nM and 6780 nM, respectively. Further, the 50% inhibitory concentration (IC50) at CDK7/CyclinH/Mat1 was over 10000 nM.

In the case of `CCOc1ccccc1-c1ncnc(Nc2cccc(CS(N)(=O)=O)c2)n1` [Compound B12, 3-[(4-(2-Ethoxyphenyl)-1,3,5-triazin-2-yl)amino]benzenemethanesulfonamide], the values for the Kd at CDK9/Cyclin T1 and at CDK8/Cyclin C were 10 nM and over 10000 nM, respectively. For the same compound, at CDK7/CyclinH/Mat1, the IC50 is over 10000 nM.

In the case of `NS(=O)(=O)Cc1cccc(Nc2ncnc(-c3ccccc3OCc3ccccc3)n2)c1` [Compound B13, 3-[(4-(2-Benzyloxyphenyl)-1,3,5-triazin-2-yl)amino]benzenemethanesulfonamide], the Kd at CDK9/Cyclin T1 is 5 nM.

Take `NS(=O)(=O)Cc1cccc(Nc2ncnc(-c3ccccc3Oc3ccccc3)n2)c1` [Compound B14, 1-(3-{[4-(2-phenoxyphenyl)-1,3,5-triazin-2-yl]amino}phenyl)methanesulfonamide]: the Kd on CDK9/Cyclin T1 stood at 25.5 nM; at CDK8/Cyclin C it was 5700 nM.

With `NS(=O)(=O)Cc1cccc(Nc2ncnc(-c3ccccc3OCc3ccncc3)n2)c1` [Compound B16, 3-[(4-(2-((4-Pyridinyl)methoxy)phenyl)-1,3,5-triazin-2-yl)amino]benzenemethanesulfonamide], the figures for the Kd at CDK9/Cyclin T1 and on CDK8/Cyclin C were under 5 nM and over 10000 nM, respectively. Also, at CDK7/CyclinH/Mat1, the IC50 was over 10000 nM.

Turning to `COc1cnccc1-c1ncnc(Nc2cccc(CS(N)(=O)=O)c2)n1` [Compound B19, 3-[(4-(3-Methoxypyridin-4-yl)-1,3,5-triazin-2-yl)amino]benzenemethanesulfonamide], the Kd at CDK9/Cyclin T1 amounted to 7 nM.

Turning to `COc1ccccc1-c1ncnc(Nc2cccc(CCS(N)(=O)=O)c2)n1` [Compound D1, 2-[3-((4-(2-Methoxyphenyl)-1,3,5-triazin-2-yl)amino)phenyl]ethanesulfonamide], on CDK9/Cyclin T1, the Kd worked out at 32.8 nM. Moreover, at CDK7/CyclinH/Mat1, the half-inhibitory concentration (IC50) was over 10000 nM.

With `COc1cc(F)ccc1-c1ncnc(Nc2cccc(CCS(N)(=O)=O)c2)n1` [Compound D2, 2-[3-((4-(4-Fluoro-2-methoxyphenyl)-1,3,5-triazin-2-yl)amino)phenyl]ethanesulfonamide], the Kd at CDK9/Cyclin T1 was found to be 9.5 nM. On CDK7/CyclinH/Mat1, the concentration for half-maximal inhibition (IC50) is over 10000 nM.

On to `COc1ccccc1-c1ncnc(Nc2cccc([N+](=O)[O-])c2)n1` [Compound H1, 4-(2-Methoxyphenyl)-N-(3-nitrophenyl)-1,3,5-triazine-2-amine], for which the Kd at CDK9/Cyclin T1 amounted to 17.8 nM.

`COc1ccccc1-c1ncnc(Nc2cccc(NS(C)(=O)=O)c2)n1` [Compound K1, N-[3-((4-(2-Methoxyphenyl)-1,3,5-triazin-2-yl)amino)phenyl]-methanesulfonamide]: the Kd on CDK9/Cyclin T1 was 38.5 nM. Also, the IC50 at CDK7/CyclinH/Mat1 was over 10000 nM.

As to `CCCS(=O)(=O)Nc1cccc(Nc2ncnc(-c3ccccc3OC)n2)c1` [Compound L1, N-[3-((4-(2-Methoxyphenyl)-1,3,5-triazin-2-yl)amino)phenyl]-propanesulfonamide], the Kd on CDK9/Cyclin T1 amounted to 45.5 nM. For the same compound, on CDK7/CyclinH/Mat1, the IC50 was over 10000 nM.

`COc1ccccc1-c1ncnc(Nc2ccccc2)n1` [Compound P1, 4-(2-Methoxyphenyl)-N-phenyl-1,3,5-triazine-2-amine]: the Kd at CDK9/Cyclin T1 turned out to be 126 nM.
